The test system of series [1] is gastric ulcer. Put plainly: anti-ulcer test against stress ulcer (restrained immersion into water). Particulars: 200 mg/kg oral. Type of series: in vivo, Wistar/ST male rats. As to the method:
Gastric ulcer was induced in Wistar/ST male rats having a weight of about 200 g (6 w) by the stress of restrained immersion into water and the anti-ulcer effects of the test samples were examined in the following groups to which test samples were administered.
(§1) Each group comprises six rats.
(§2) Group 1: (control) physiological saline
Group 2: (comparative) cetraxate hydrochloride 200 mg/kg
Group 3: (the present invention) garcinol 200 mg/kg
In this connection, the test samples in the control, comparative group and the present invention group were prepared in the same manner as in Experimental Example 9.
Rats having fasted for 24 hours were locked up in a restrained dipping cage after 30 minutes from the oral administration of respective test samples. Next, rats were stressed by dipping the cage into water at 23° C. for 7 hours, and bleeded to death under anesthetization with nembutal, and stomach was isolated. A phosphate buffer (10 ml) containing 10% formalin was injected into the stomach, which was cut open after 10 minutes, and the length of lesion caused in the glandular stomach portion was defined as the lesion index, which was measured in the mm unit to evaluate the anti-ulcer effect.
The method for calculating the suppression rate (%) and the meaning of it has been described in Experimental Example 9.

The nature of series [2]: superoxide scavenging activity test with phenazine methosulfate. The note with it: 40 μM final concentration. The protocol:
The active oxygen scavenging activity was evaluated according to the superoxide scavenging activity test with phenazine methosulfate. That is to say, dihydronicotinamide adenine dinucleotide and phenazine methosulfate were first reacted in a buffer at a physiological hydrogen ion concentration. The absorbance at 560 nm of a formazan pigment produced by the reduction of Nitro Blue Tetrazolium with superoxide was measured. […] The ratio of decreases of absorbance was expressed as superoxide scavenging activity.

The subject of a further series is mice. On the set-up: species or system ICR/crj male mice. The note with it: mouse, in vivo. As to the method: ICR/crj male mice (5 week-old) having a weight of 29-32 g, each group comprising 5 animals.
Toxicity test by single administration was carried out in accordance with Guidelines of the Toxicity Test Method for Pharmaceuticals (Nichi-Yaku-Shin No. 118, released on Feb. 15, 1984, Notice of Second Section Manager of Examination of Pharmaceutical Affairs Bureau in Ministry of Health and Welfare to the Managers of Hygiene Division of Prefectures).
Garcinol was suspended into a physiological saline in a concentration of 30 mg/ml, and the suspension was administered orally to mice at a dose of 0.5 ml per 30 g of body weight (500 mg/kg of body weight) for observation for 14 days.

In series [3] the test system is gastric ulcer. Put plainly: anti-ulcer test against indomethacin-induced gastric ulcer. Type of series: in vivo, Wistar/ST male rats. Particulars: for Length of ulcer: 30 minutes before indomethacin (50 mg/kg s.c.), control 47.75 ± 6.08; for Suppression rate: indomethacin ulcer, vs. control. The protocol:
Ulcer was induced in Wistar/ST male rats having a weight of about 200 g (6 week-old) by indomethacin as a gastric ulcer inducing agent, and the anti-ulcer effects of the test samples were examined in the following six groups to which test samples were administered.
as §1
______________________________________
as §2
Group 2: (comparative) cetraxate hydrochloride
Group 3: (the present invention) garcinol
Group 4: (the present invention) garcinol
Group 5: (the present invention) garcinol
Group 6: (the present invention) isogarcinol
In this connection, physiological saline containing 1% sodium carboxymethylcellulose was used as the control, and cetraxate hydrochloride (trade name "Neuer®S", Daiichi Pharmaceuticals Co., Ltd.) which is clinically used as an anti-ulcer agent was used as the comparative sample. The cetraxate hydrochloride insoluble in water was ground into fine powder with a mortar and a pestle and used as a suspension in a 1% sodium carboxymethylcellulose solution. Also, garcinol and isogarcinol in the form of fine powder were used as the suspensions in a 1% sodium carboxymethylcellulose solution in the concentrations which are the doses in the groups. In this connection, garcinol and isogarcinol used in the section of the present invention were those obtained in Referential Examples 1 and 2, respectively.
Experiment was carried out according to the method described by Yamahara et al. (see […] ZASSHI, 114, 401, 1994) which had been slightly modified. That is to say, indomethacin (50 mg/kg) was suspended in 1% sodium carboxymethylcellulose containing 0.1% Tween 20 (Sigma) and injected subcutaneously into the back of 24 hour fasted rats in an amount of 1 ml/rat. The samples in the six sections were orally administered at 30 minutes before administration of indomethacin. After 7 hours from the administration of indomethacin, rats were bleeded to death under anesthetization with nembutal, and stomach was isolated. A phosphate buffer (10 ml) containing 10% formalin was injected into the stomach, which was cut open after 10 minutes, and the length of lesion caused in the glandular stomach portion was defined as the lesion index, which was measured in the mm unit to evaluate the anti-ulcer effect. The suppression rate (%) in Table 1 means the value in which the difference of the length (mm) of ulcer in each group subtracted from the average length, 47.75 (mm) of ulcer in the control was divided with the average length, 47.75 (mm) of ulcer in the control. The larger the value, the stronger the anti-ulcer activity.

Series [4] is described as follows: DPPH radical scavenging activity. The protocol:
The 1,1-diphenyl-2-picrylhydrazyl (DPPH) radical scavenging activity was tested with a garcinol preparation prepared in the similar manner as described in Referential Example 1. That is to say, a 1.0×10^-4 M solution (50% ethanolic) of DPPH was prepared, 0.0002% of a test substance was added, and the decrease of optical density at 528 nm was measured after 1 hour reaction at 25° C. for one hour. In this case, ascorbic acid was used as a standard, the decrease of the absorbance was expressed as 100, and the radical scavenging activity of the test substance was measured as equivalences to ascorbic acid. In this connection, a garcinol preparaion used as the test substance, and vitamin E and (+)-catechin were used as references.
On the technique in general: DPPH is a stable violet radical that fades when it is reduced.

Structures are written as SMILES.

Consider `C=C(C)[C@@H](CC=C(C)C)C[C@@]12C[C@@H](CC=C(C)C)C(C)(C)[C@@](CC=C(C)C)(C(=O)C(C(=O)c3ccc(O)c(O)c3)=C1O)C2=O` [garcinol], for which the Length of ulcer in the series on gastric ulcer [1] (restrained water immersion 23° C., 7 hours, control 44.20 ± 18.10) was 17.60 ± 9.96 mm; in the series on gastric ulcer [3] (50 mg/kg oral), 5.75 ± 6.13 mm; in the series on gastric ulcer [3] (100 mg/kg oral), 4.00 ± 4.32 mm; in the series on gastric ulcer [3] (200 mg/kg oral) it was 3.00 ± 5.35 mm. The Suppression rate in the series with gastric ulcer [1] (stress ulcer, vs. control) is given as 60.2%; in the series on gastric ulcer [3] (50 mg/kg oral), 88.0%; with gastric ulcer [3] (100 mg/kg oral), 91.6%; in the series with gastric ulcer [3] (200 mg/kg oral) it was 93.7%. For the same compound, the superoxide scavenging rate in series [2] is given as 75%. In addition, the “microscopic disorders in tissues or organs (autopsy)” value in the series with mice is given as “no microscopic disorders in tissues or organs were observed”. Also, the “DPPH radical scavenging activity (equivalences to ascorbic acid = 100)” value in series [4] (0.0002% test substance, 1.0×10^-4 M DPPH, 25° C., 1 hour, 528 nm) is listed as 85. Besides, the “radical scavenging activity per unit weight relative to vitamin E” value in series [4] (per unit weight of vitamin E) is listed as “about three times”.

The values above are taken from patent US5972357A, “Healthy foods and cosmetics” (Kikkoman Corporation, priority 1996, dated 1999).
